Test results: patent US11572341B2, “Biguanide compound and use thereof” (ImmunoMet Therapeutics Inc., priority 2014, dated 2023)

Legend:
[1] = system: HCT116 cells; test: Inhibitory effect against cancer cell proliferation (MTT); type: cell-based, human; details: Homo sapiens, HCT-116; HCT116, MTT, 48 hours; read-out: IC50 (uM) @ HCT116
Description: The formazane crystals thus formed were dissolved using dimethyl sulfoxide (DMSO) and absorbance of the solution was measured at 560 nm. After culturing for 48 hours, […] synthesized in Examples was indicated as cell viability (%) according to each treated concentration.

[2] = system: AMPKa [pT172]; test: AMPKa activation [pT172] in MCF7 cell; type: cell-based

SMILES	IC50 [1]	AMPKa activation [pT172] (Unit/ml) @ MCF7 cell ([2]; 5 uM)	AMPKa activation [pT172] (Unit/ml) @ MCF7 cell ([2]; 10 uM)	AMPKa activation [pT172] (Unit/ml) @ MCF7 cell ([2]; 50 uM)
CCCN(CC)C(=N)NC(=N)N(CCC)CCC.Cl [Example 7, N1,N1-dipropyl-N5-propyl-N5-ethyl Biguanide Hydrochloride]	> 100 µM	16.2 Unit/ml	22.3 Unit/ml	34.6 Unit/ml
CCCN(CCC)C(=N)NC(=N)N1CCCCC1.Cl [Example 8, N1,N1-dipropyl-N5-piperidine Biguanide Hydrochloride]	> 100 µM	10.8 Unit/ml	12.5 Unit/ml	19.3 Unit/ml
CC(C)(C)N(Cc1ccccc1)C(=N)NC(=N)Nc1ccc(Cl)cc1.Cl [Example 10, N1-(4-chloro)phenyl-N5-t-butyl-N5-benzyl Biguanide Hydrochloride]	> 100 µM	–	–	10.4 Unit/ml
Cl.N=C(NCc1ccccc1Cl)NC(=N)N1CCCCC1 [Example 12, N1-piperidin-N5-(2-chloro)benzyl Biguanide Hydrochloride]	> 100 µM	–	–	3.1 Unit/ml
CCCN(CCC)C(=N)NC(=N)N(C1CCCCC1)C1CCCCC1.Cl [Example 15, N1,N1-dipropyl-N5,N5-dicyclohexyl Biguanide Hydrochloride]	> 100 µM	–	–	6.1 Unit/ml
CCCN(CCC)C(=N)NC(=N)N(CCC)CCC.Cl [Example 16, N1,N1-dipropyl-N5N-dipropyl Biguanide Hydrochloride]	45.9 µM	7.0 Unit/ml	9.4 Unit/ml	13.6 Unit/ml
CC(C)NC(=N)NC(=N)Nc1ccc(Cl)cc1.Cl [Example 17, N1-isopropyl-N5-(4-chloro)phenyl Biguanide Hydrochloride]	35.1 µM	10.2 Unit/ml	10.8 Unit/ml	55.7 Unit/ml
CN1CCN(C(=N)NC(=N)NCc2ccc(C(F)(F)F)cc2)CC1.Cl [Example 18, N1-(4-methyl)piperazin-N5-(4-trifluoromethyl)benzyl Biguanide Hydrochloride]	> 100 µM	7.1 Unit/ml	8.6 Unit/ml	13.3 Unit/ml
CN1CCN(C(=N)NC(=N)Nc2ccc(C(F)(F)F)cc2)CC1.Cl [Example 19, N1-(4-methyl)piperazin-N5-(4-trifluoromethyl)phenyl Biguanide Hydrochloride]	41.7 µM	3.3 Unit/ml	4.3 Unit/ml	15.3 Unit/ml
CN1CCN(C(=N)NC(=N)NCc2cccc(C(F)(F)F)c2)CC1.Cl [Example 20, N1-(4-methyl)piperazin-N5-(3-trifluoromethyl)benzyl Biguanide Hydrochloride]	> 100 µM	2.9 Unit/ml	4.5 Unit/ml	5.6 Unit/ml
CN1CCN(C(=N)NC(=N)Nc2cccc(C(F)(F)F)c2)CC1.Cl [Example 21, N1-(4-methyl)piperazin-N5-(3-trifluoromethyl)phenyl Biguanide Hydrochloride]	43.2 µM	6.0 Unit/ml	5.8 Unit/ml	14.8 Unit/ml
CN1CCN(C(=N)NC(=N)Nc2cccc(OC(F)(F)F)c2)CC1.Cl [Example 22, N1-(4-methyl)piperazin-N5-(3-trifluoromethoxy)phenyl Biguanide Hydrochloride]	35.2 µM	3.8 Unit/ml	10.1 Unit/ml	22.3 Unit/ml
CCOC1CCN(C(=N)NC(=N)Nc2ccc(C(F)(F)F)cc2)CC1.Cl [Example 23, N1-(4-ethoxy)piperidin-N5-(4-trifluoromethyl)phenyl Biguanide Hydrochloride]	12.7 µM	7.7 Unit/ml	6.6 Unit/ml	cell death
CCOC1CCN(C(=N)NC(=N)Nc2cccc(C(F)(F)F)c2)CC1.Cl [Example 24, N1-(4-ethoxy)piperidin-N5-(3-trifluoromethyl)phenyl Biguanide Hydrochloride]	11.5 µM	5.2 Unit/ml	4.7 Unit/ml	cell death
CCOC1CCN(C(=N)NC(=N)Nc2ccc(OC(F)(F)F)cc2)CC1.Cl [Example 26, N1-(4-ethoxy)piperidin-N5-(4-trifluoromethoxy)phenyl Biguanide Hydrochloride]	9.7 µM	3.6 Unit/ml	6.6 Unit/ml	cell death
